# From patent publication US20100094000A1, “PYRAZOLE COMPOUNDS” (TAKEDA PHARMACEUTICAL COMPANY LIMITED, priority 2008, published 2010)
# Test system: not given
# Assay: not given
# Conditions: not given
row,SMILES,melting point
1,"Cc1nn(C)c(-c2ccc(F)cc2)c1-c1cc(Cl)c2c(c1)NC(=O)CO2 [Example 32, 8-Chloro-6-[5-(4-fluorophenyl)-1,3-dimethyl-1H-pyrazol-4-yl]-2H-1,4-benzoxazin-3(4H)-one]",260.2 to 260.5 °C
2,[2H]C1([2H])Oc2ccc(-c3c(C)nn(CC(C)(F)F)c3-c3ccc(F)cc3)cc2NC1=O [Example 174],205 to 206 °C
3,"CCOC(=O)CCC(=O)OCC(F)(F)Cn1nc(C)c(-c2ccc3c(c2)NC(=O)CO3)c1-c1ccc(F)cc1 [Example 185, 2,2-Difluoro-3-[5-(4-fluorophenyl)-3-methyl-4-(3-oxo-3,4-dihydro-2H-1,4-benzoxazin-6-yl)-1H-pyrazol-1-yl]propyl ethyl butanedioate]",100 °C
4,"CCCCCCCCCCCCCCCC(=O)OCC(F)(F)Cn1nc(C)c(-c2ccc3c(c2)NC(=O)CO3)c1-c1ccc(F)cc1 [Example 186, 2,2-Difluoro-3-[5-(4-fluorophenyl)-3-methyl-4-(3-oxo-3,4-dihydro-2H-1,4-benzoxazin-6-yl)-1H-pyrazol-1-yl]propyl hexadecanoate]",106 °C
5,"CCOC(=O)OCC(F)(F)Cn1nc(C)c(-c2ccc3c(c2)NC(=O)CO3)c1-c1ccc(F)cc1 [Example 187, 2,2-Difluoro-3-[5-(4-fluorophenyl)-3-methyl-4-(3-oxo-3,4-dihydro-2H-1,4-benzoxazin-6-yl)-1H-pyrazol-1-yl]propyl ethyl carbonate]",142 °C
6,"CNC(=O)OCC(F)(F)Cn1nc(C)c(-c2ccc3c(c2)NC(=O)CO3)c1-c1ccc(F)cc1 [Example 198, 2,2-Difluoro-3-[5-(4-fluorophenyl)-3-methyl-4-(3-oxo-3,4-dihydro-2H-1,4-benzoxazin-6-yl)-1H-pyrazol-1-yl]propyl methylcarbamate]",112 °C

# Target: T1, Human Mineralocorticoid Receptor (hMR) (Homo sapiens, UniProt P08235)
# T1 construct: To obtain the full-length hMR cDNA, pB-hMR (i) was digested with XhoI and PvuI; expressed in transfected cells; host or cells: FreeStyle 293 cells transiently transfected with pMCMVneo-hMR; supernatant of the freeze-thaw lysate (hMR lysate)
# T1 sequence (P08235 1-984): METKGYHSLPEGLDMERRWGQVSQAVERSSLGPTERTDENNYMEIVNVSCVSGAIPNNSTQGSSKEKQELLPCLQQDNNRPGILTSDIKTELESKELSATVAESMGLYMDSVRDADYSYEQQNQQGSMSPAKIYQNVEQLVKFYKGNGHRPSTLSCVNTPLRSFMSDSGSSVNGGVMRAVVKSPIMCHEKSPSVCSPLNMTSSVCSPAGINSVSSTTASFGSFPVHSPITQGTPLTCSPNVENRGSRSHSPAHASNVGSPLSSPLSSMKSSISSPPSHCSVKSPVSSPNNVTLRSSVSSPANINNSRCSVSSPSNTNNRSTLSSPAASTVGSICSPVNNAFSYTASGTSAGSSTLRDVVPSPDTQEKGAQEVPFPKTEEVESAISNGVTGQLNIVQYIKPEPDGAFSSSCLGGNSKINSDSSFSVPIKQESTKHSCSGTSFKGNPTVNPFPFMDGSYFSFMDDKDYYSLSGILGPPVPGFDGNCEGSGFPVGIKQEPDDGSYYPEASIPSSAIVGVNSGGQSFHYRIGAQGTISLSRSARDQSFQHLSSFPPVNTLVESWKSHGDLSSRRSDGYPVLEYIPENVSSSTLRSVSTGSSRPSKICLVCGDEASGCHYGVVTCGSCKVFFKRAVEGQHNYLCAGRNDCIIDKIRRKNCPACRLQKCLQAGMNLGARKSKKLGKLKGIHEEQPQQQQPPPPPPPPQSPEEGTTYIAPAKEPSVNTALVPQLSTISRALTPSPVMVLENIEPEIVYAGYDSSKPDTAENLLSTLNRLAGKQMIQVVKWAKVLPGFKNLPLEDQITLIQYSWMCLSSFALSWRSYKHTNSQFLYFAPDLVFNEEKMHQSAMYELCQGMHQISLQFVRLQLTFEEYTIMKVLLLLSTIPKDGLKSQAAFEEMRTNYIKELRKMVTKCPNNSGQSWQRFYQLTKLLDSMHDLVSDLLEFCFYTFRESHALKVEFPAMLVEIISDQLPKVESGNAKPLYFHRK
# Assay: Inhibition of binding of hMR and [3H]-aldosterone (hMR lysate, charcoal separation)
# Conditions: test compound at 10^−5 M; 10 nM [3H]-aldosterone; hMR lysate; 16 hr at 4° C.; read-out: Inhibition rate (at 10^−5 M)
# Method: The following procedures described in this Example were carried out according to the methods described in Molecular Cloning—Cold Spring Harbor Laboratory (1989) or protocols specified by manufacturers.
# (1) Cloning of Human Mineralocorticoid Receptor (hMR) cDNA
# hMR cDNA was amplified by polymerase chain reaction (PCR) from human kidney cDNA library. Full-length cDNA was constructed from two fragments of hMR cDNA amplified separately. The primers were designed referring to the nucleotide sequence of hMR cDNA reported by Arriza et. al (Science 1987; 237: 268-275).
# The PCR reactions were carried out using PyrobestR® DNA polymerase (Takara). The PCR products were electrophoresed in agarose gel, and 1.7 kb (region (i)) and 1.5 kb (region (ii)) DNA fragments were recovered. Each DNA fragment was inserted into pCR®4Blunt-TOPO® vector (Invitrogen). The resulting plasmids thus obtained were designated as pB-hMR (i) and pB-hMR (ii). To obtain the full-length hMR cDNA, pB-hMR (i) was digested with XhoI and PvuI, and pB-hMR (ii) was digested with PvuI and KpnI, respectively, and the two cDNA fragments were ligated into pBlueScript®IISK+ vector (Stratagene). The resulting plasmid thus obtained was designated as pB-hMR.
# pMCMVneo (described in WO03/099793) was digested with XhoI and KpnI, and 5.6 kb fragment was ligated with 2.9 kb hMR cDNA fragment obtained by digestion of pB-hMR (described in above (1)) with XhoI and KpnI. The plasmid thus obtained was designated as pMCMVneo-hMR.
# FreeStyle 293 cells were inoculated at 3×10^8 cells in 270 ml FreeStyle™ 293 Expression Medium (Invitrogen) in a 1000 ml Erlenmeyer flask. The cells were treated with 30 ml of the transfection mixture containing 300 μg of pMCMVneo-hMR obtained in above (2) and 400 μl of 293fectin™ Reagent (Invitrogen). The transfected cells were cultivated for 48 hr at 37° C. in 8% CO2 atmosphere at 125 rpm. The cultivated cells were centrifuged and washed with TEG buffer (10 mM Tris-HCl (pH 7.2), 50 mM EDTA, 10% glycerol), and resuspended in 10 ml TEGM buffer (10 mM Tris-HCl (pH 7.2), 1 mM EDTA, 10% glycerol, 1 mM β-mercaptoethanol, 10 mM sodium molybdate, 1 mM dithiothreitol, 2 tablets/100 ml of protease inhibitor cocktail tablets (Roche)). The cell suspension was frozen with liquid nitrogen and thawed on ice, and ultra-centrifuged at 186,000×g for 20 min at 4° C. The supernatant fraction including hMR (hMR lysate) was collected and stored at −80° C.
# (4) Measurement of Inhibition Activity Against Binding of hMR and Aldosterone
# [^3H]-Aldosterone (Amersham Biosciences) as ligand was added at 10 nM to the reaction mixture including test compound at various concentration and hMR lysate (lot.19: 0.675 mg/mL, lot.20: 0.675 mg/mL, lot.21: 0.765 mg/mL, lot.22: 0.900 mg/mi, lot.23: 0.750 mg/mL) obtained in above (3) and mixture was filled up to 50.5 μl with TEGM buffer. The reaction mixture was incubated for 16 hr at 4° C. and 35 μl of dextran/gelatin coated charcoal suspension (5% charcoal, 0.5% dextran T-70 (Amersham Biosciences), 0.1% gelatin (SIGMA), 10 mM Tris HCl (pH 7.2), 1 mM EDTA) was added thereto to separate bound and free radioactive aldosterone. The mixture containing charcoal was incubated for 10 min at 4° C. and centrifuged at 910×g for 10 min at 4° C.
# Radioactivity in 30 μl of the supernatant was measured by TopCount™ (Packard).
# For the determination of nonspecific binding, cold Aldosterone instead of drug was added to reaction mixture at 100 μM. Specific binding was determined by subtracting nonspecific binding from total binding.
row,SMILES,inhibition at 10 µM
1,"Cc1nn(C)c(-c2ccc(F)cc2)c1-c1ccc2c(c1)NC(=O)CO2 [Example 1, 6-[5-(4-Fluorophenyl)-1,3-dimethyl-1H-pyrazol-4-yl]-2H-1,4-benzoxazin-3(4H)-one]",≥ 90%
2,"Cc1nn(CCS(C)(=O)=O)c(-c2ccc(F)cc2)c1-c1ccc2c(c1)NC(=O)CO2 [Example 6, 6-{5-(4-Fluorophenyl)-3-methyl-1-[2-(methylsulfonyl)ethyl]-1H-pyrazol-4-yl}-2H-1,4-benzoxazin-3(4H)-one]",≥ 90%
3,"Cc1nn(CCC(F)(F)CO)c(-c2ccc(F)cc2)c1-c1ccc2c(c1)NC(=O)CO2 [Example 25, 6-[1-(3,3-Difluoro-4-hydroxybutyl)-5-(4-fluorophenyl)-3-methyl-1H-pyrazol-4-yl]-2H-1,4-benzoxazin-3(4H)-one]",≥ 90%
4,"CC(=O)OCC(F)(F)Cn1nc(C)c(-c2ccc3c(c2)NC(=O)CO3)c1-c1ccc(F)cc1 [Example 26, 2,2-Difluoro-3-[5-(4-fluorophenyl)-3-methyl-4-(3-oxo-3,4-dihydro-2H-1,4-benzoxazin-6-yl)-1H-pyrazol-1-yl]propyl acetate]",≥ 90%
5,"Cc1nn(CC(C)(F)F)c(-c2ccc(F)cc2)c1-c1ccc2c(c1)NC(=O)CO2 [Example 83, 6-[1-(2,2-Difluoropropyl)-5-(4-fluorophenyl)-3-methyl-1H-pyrazol-4-yl]-2H-1,4-benzoxazin-3(4H)-one]",≥ 90%
6,"CC(=O)Cn1nc(C)c(-c2ccc3c(c2)NC(=O)CO3)c1-c1ccc(F)cc1 [Example 87, 6-[5-(4-Fuorophenyl)-3-methyl-1-(2-oxopropyl)-1H-pyrazol-4-yl]-2H-1,4-benzoxazin-3(4H)-one]",≥ 90%
7,"Cc1nn(CC(F)(F)CO)c(-c2ccc(F)cc2)c1-c1ccc2c(c1)NC(=O)CO2 [Example 109, 6-[1-(2,2-Difluoro-3-hydroxypropyl)-5-(4-fluorophenyl)-3-methyl-1H-pyrazol-4-yl]-2H-1,4-benzoxazin-3(4H)-one]",≥ 90%
8,"Cc1nn(CC(C)(C)CO)c(-c2ccc(F)cc2)c1-c1ccc2c(c1)NC(=O)CO2 [Example 125, 6-[5-(4-Fluorophenyl)-1-(3-hydroxy-2,2-dimethylpropyl)-3-methyl-1H-pyrazol-4-yl]-2H-1,4-benzoxazin-3(4H)-one]",≥ 90%
9,"Cc1nn(CC(F)(F)CO)c(-c2ccc(F)cc2)c1-c1ccc2c(c1C)NC(=O)CO2 [Example 128, 6-[1-(2,2-Difluoro-3-hydroxypropyl)-5-(4-fluorophenyl)-3-methyl-1H-pyrazol-4-yl]-5-methyl-2H-1,4-benzoxazin-3(4H)-one]",≥ 90%
10,"Cc1nn(Cc2cccnc2)c(-c2ccc(F)cc2)c1-c1ccc2c(c1)NC(=O)CO2 [Example 135, 6-[5-(4-Fluorophenyl)-3-methyl-1-(pyridin-3-ylmethyl)-1H-pyrazol-4-yl]-2H-1,4-benzoxazin-3(4H)-one]",≥ 90%
11,"Cc1nn(CC2CCOC2)c(-c2ccc(F)cc2)c1-c1ccc2c(c1)NC(=O)CO2 (stereo not drawn) [Example 146, 6-[5-(4-Fluorophenyl)-3-methyl-1-(tetrahydrofuran-3-ylmethyl)-1H-pyrazol-4-yl]-2H-1,4-benzoxazin-3(4H)-one]",≥ 90%
12,"Cc1nn(C[C@@H]2CCC(=O)O2)c(-c2ccc(F)cc2)c1-c1ccc2c(c1)NC(=O)CO2 [Example 159, 6-[5-(4-Fluorophenyl)-3-methyl-1-{[(2S)-5-oxotetrahydrofuran-2-yl]methyl}-1H-pyrazol-4-yl]-2H-1,4-benzoxazin-3(4H)-one]",≥ 90%
